In brackets after ≈: the same amount, converted by molar mass.
Columns and labels:
Assay type in all cases: cell-based
MCF-10A cells = assay: MTT cell viability assay, nonmalignant MCF-10A; details: Homo sapiens, 72 h exposure, nonmalignant breast epithelial cells, mean ± SD, read-out: IC50 MCF10-A
Experimental: The anticancer activity of the studied compounds (3a–h) was explored with regards to two human breast cancer cell lines, namely the estrogen receptor positive (ER+) MCF-7 cells and the triple negative MDA-MB-231 cells (ER-, PR-, and HER-2/Neu-). Cells were continuously exposed to the test substances for 72 h, after which their viability was assessed by means of the MTT assay. Table 2 lists the determined IC50 values for the investigated substances and the reference drug, thalidomide. […] Additionally, the same test for all the compounds has been performed on nonmalignant breast epithelial cells (MCF-10A) to ascertain their potential cytotoxicity.
The four cell lines used in this work (MCF-7, MDA-MB-231, MCF-10A, and 3T3-L1) were obtained from the American Type Culture Collection (ATCC, Manassas, VA, USA). All cell lines were maintained at 37 °C in a humidified atmosphere of 95% air and 5% CO2 and periodically screened for contamination. MCF-7, human breast cancer cells estrogen receptor (ER)-positive, and human breast cancer triple negative MDA-MB231 were grown in DMEM-F12 medium containing 2 mmol/L L-glutamine, 1 mg/mL penicillin–streptomycin, and 5% newborn calf serum (NCS) or 5% fetal bovine serum (FBS), respectively. MCF-10A human mammary epithelial cells were cultured in DMEM/F12 medium, supplemented with 5% horse serum (HS) (Eurobio, Les Ullis, Cedex, France), 100 U/mL penicillin/streptomycin, […], 20 ng/mL hEGF (human epidermal growth factor), […], and […] (Sigma-Aldrich, Milano, Italy). BALB/3T3 murine fibroblast cells were cultured in DMEM high glucose supplemented with 10% bovine calf serum (BCS), 1% L-glutamine, and 100 U/mL penicillin/streptomycin.
Cell viability was evaluated by means of the 3-(4,5-dimethylthiazol-2-y1)-2,5-diphenyltetra zolium bromide (MTT, Sigma-Aldrich, Milan, Italy) assay. On 48-well plates, cells were seeded, and they were cultured in complete medium. Before being treated, cells were starved in serum-free medium for 24 h to allow cell cycle synchronization. Subsequently, cells were exposed to increasing doses of each compound for 72 h in phenol-red-free media supplemented with 1% serum before fresh MTT was added to each well (final concentration: 0.5 mg/mL). Cells were lysed with DMSO after 2 h of incubation at 37 °C, and optical density at 570 nm was then determined with a microplate reader. Using GraphPad Prism 9 software (GraphPad Inc., San Diego, CA, USA), the mean absorbance for each sample was expressed as a percentage over the control and plotted vs. drug concentrations to establish the IC50 values. The given standard deviations (SDs) are indicative of three separate tests carried out in triplicate.

[1] = test system: Pseudomonas aeruginosa 27853; assay: Broth microdilution, P. aeruginosa ATCC 27853; details: 24 h, 37 °C
Description: (§1) Compounds 3a–h were examined in accordance with the Clinical Laboratory Standards Institute (CLSI) recommendations, by means of the broth microdilution method, against gram-positive bacteria (Staphylococcus aureus 25923, Staphylococcus aureus 29213, Staphylococcus aureus 43300, Enterococcus faecalis 29212) and gram-negative bacteria (Escherichia coli 25922, Klebsiella pneumoniae 13883, Pseudomonas aeruginosa 27853) belonging to the ATCC collection, using levofloxacin as a reference drug. Table 3 lists the results, expressed as MIC (µg/mL). […] The lack of activity observed for compound 3d could be conceivably due to its poor solubility in the culture medium containing the inoculum.
(§2) Following the recommendations of the CLSI (Clinical and Laboratory Standards Institute, 2012), the broth microdilution method was used to determine the in vitro minimum inhibitory concentrations (MICs, µg/mL).. The concentration of the investigated compounds was set to its highest value to create stock solutions. Then, the stock solutions were diluted 1:10 with Cation-Adjusted Mueller Hinton Broth (Oxoid, Milan, Italy). After that, a series of concentrations from 512 µg/mL to […] were obtained in the wells by performing two-fold serial dilutions in the appropriate test medium. The diluent used to create the stock solution was 100% DMSO. We used the following bacterial strains from the ATCC collection that were available as freeze-dried discs: gram-positive strains such as S. aureus ATCC 25923, 29213, and 43300, and E. faecalis ATCC 29212, and gram-negative ones such as E. coli ATCC 25922, K. pneuomoniae ATCC 13883, and P. aeruginosa ATCC 27853. To preserve the purity of cultures and to allow their reproducibility, cryovials of all microbial strains were set up in the medium and stored at −80 °C. Mueller Hinton Broth (MHB) was used to prepare pre-cultures of each bacterial strain, which were then incubated for 3–5 h at 37 °C. In accordance with CLSI procedure M7-A9, the turbidity of the bacterial cell suspension was calibrated to 0.5 McFarland Standard using a spectrophotometric approach (OD625 nm 0.08–0.10). The standardized suspension was then further diluted (1:100) with MHB to reach 1–2 × 10^6 CFU/mL. A 200 µL aliquot of the final inoculum was inserted into each well. As a control for growth, several wells containing only inoculated broth were prepared. The plates were incubated at 37 °C for 24 h, and the MIC values were calculated as the lowest concentration of compounds at which there was no optically detectable bacteria growth. Each experiment was carried out in duplicate and repeated twice to determine the MICs. Levofloxacin served as the study’s standard reference antibiotic. Additionally, the antibacterial activity of DMSO alone (used as a diluent for the investigated compounds) was examined; therefore, volumes of this solvent with a concentration of less than 5% were utilized throughout the experimentation.

[2] = test system: Staphylococcus aureus 29213; assay: Broth microdilution, S. aureus ATCC 29213; details: 24 h, 37 °C
Description: as §1, §2

[3] = test system: Klebsiella pneumoniae 13883; assay: Broth microdilution, K. pneumoniae ATCC 13883; details: 24 h, 37 °C, read-out: MIC K.p. 13883
Description: as §1, §2

[4] = test system: Acinetobacter baumanii 19606; assay: Broth microdilution, A. baumanii 19606; details: Acinetobacter baumannii, 24 h, 37 °C, read-out: MIC A.b. 19606

Row | MIC [1] | MIC [2] | MIC [3] | MIC [4] | Compound | IC50 (MCF-10A cells)
1 | 64 µg/mL (≈ 228 µM) | 64 µg/mL (≈ 228 µM) | 128 µg/mL (≈ 457 µM) | 64 µg/mL (≈ 228 µM) | O=C1c2ccccc2C(=O)N1c1nc2ccccc2s1 [3a, 2-(1,3-benzothiazol-2-yl)-1H-isoindole-1,3(2H)-dione] | > 500 µM
2 | 64 µg/mL (≈ 215 µM) | 64 µg/mL (≈ 215 µM) | 128 µg/mL (≈ 429 µM) | 128 µg/mL (≈ 429 µM) | O=C1c2ccccc2C(=O)N1c1nc2ccc(F)cc2s1 [3b, 2-(6-Fluoro-1,3-benzothiazol-2-yl)-1H-isoindole-1,3(2H)-dione] | 151.9 ± 1.1 µM
3 | 128 µg/mL (≈ 367 µM) | 128 µg/mL (≈ 367 µM) | 128 µg/mL (≈ 367 µM) | 128 µg/mL (≈ 367 µM) | O=C1c2ccccc2C(=O)N1c1nc2ccc(C(F)(F)F)cc2s1 [3c, 2-[6-Trifluoromethyl-1,3-benzothiazol-2-yl]-1H-isoindole-1,3(2H)-dione] | > 500 µM
4 | > 512 µg/mL | > 512 µg/mL | > 512 µg/mL | > 512 µg/mL | Cc1ccc2nc(N3C(=O)c4ccccc4C3=O)sc2c1 [3d, 2-[6-Methyl-1,3-benzothiazol-2-yl]-1H-isoindole-1,3(2H)-dione] | > 500 µM
5 | 64 µg/mL (≈ 206 µM) | 64 µg/mL (≈ 206 µM) | 64 µg/mL (≈ 206 µM) | 64 µg/mL (≈ 206 µM) | COc1ccc2nc(N3C(=O)c4ccccc4C3=O)sc2c1 [3e, 2-[6-Methoxy-1,3-benzothiazol-2-yl]-1H-isoindole-1,3(2H)-dione] | > 500 µM

Row | Compound | MIC [1] | MIC [2] | MIC [3] | MIC [4] | IC50 (MCF-10A cells)
6 | COc1cc2nc(N3C(=O)c4ccccc4C3=O)sc2cc1OC [3f, 2-[5,6-Dimethoxy-1,3-benzothiazol-2-yl]-1H-isoindole-1,3(2H)-dione] | 64 µg/mL (≈ 188 µM) | 64 µg/mL (≈ 188 µM) | 64 µg/mL (≈ 188 µM) | 64 µg/mL (≈ 188 µM) | > 500 µM
7 | O=C1c2ccccc2C(=O)N1c1nc2ccc(O)cc2s1 [3g, 2-[6-Hydroxy-1,3-benzothiazol-2-yl]-1H-isoindole-1,3(2H)-dione] | 64 µg/mL (≈ 216 µM) | 64 µg/mL (≈ 216 µM) | 64 µg/mL (≈ 216 µM) | 64 µg/mL (≈ 216 µM) | > 500 µM
8 | O=C1c2ccccc2C(=O)N1c1nc2ccc(Oc3ccccc3)cc2s1 [3h, 2-[6-Phenoxy-1,3-benzothiazol-2-yl]-1H-isoindole-1,3(2H)-dione] | 32 µg/mL (≈ 85.9 µM) | 32 µg/mL (≈ 85.9 µM) | 32 µg/mL (≈ 85.9 µM) | 32 µg/mL (≈ 85.9 µM) | 193.9 ± 1 µM
